Source: patent publication US6153756A, “Soluble prodrugs of paclitaxel” (priority 1997, dated 2000)
Where “and” joins values, the source holds several entries; their conditions need not be identical. Equal values may be shown once. Where a name gives a salt, the structure may show the parent alone. Read-outs that look alike come from different tables or passages of the source.

Assays:
[1] = Solubility of 2'-MPM in deionized water; type: physicochemical
Description: Solubility: Deionized water (0.5 ml) was added to three samples of the 2'-MPM (1.54 mg, 0.97 mg and 0.80 mg) and the flask sonicated for approximately one (1) minute.

[2] = Extraction of 2'-MPM from water into CH2Cl2; type: physicochemical; settings: three samples (1.2, 1.0, 0.98 mg) in water (1 ml) stirred with CH2Cl2 (1 ml)
Description: Extraction: Three samples (1.2,1.0 and 0.98 mg) were dissolved in water (1 ml) and vigorously stirred with CH2 Cl2 (1 ml). The organic phase was transferred to a clean, tared vial and concentrated in vacuo. The residue was weighed and compared to the theoretical input to gauge the effectiveness of the extraction procedure. Average return for this extraction was about 44% of theoretical.

[3] = Aqueous stability of 2'-MPM in H2O and 0.2M NaCl; type: physicochemical
Description: Aqueous Stability: The stability of the prodrug in H2 O and 0.2M NaCl was examined at both room temperature and under refrigerated conditions. Samples in H2 O (0.54 mg in 2 ml) and NaCl (0.57 mg in 2 ml) at room temperature were examined at two minute time intervals (0 through 12 minutes), 2 hours and 24 hours. […] At 4° C. the product concentration was unchanged at 24 and 48 hours but decreased to 90% after 72 hours. […] At 4° C. the product concentration was unchanged at 24 hours, was 91% at 48 hours and was 88% at 72 hours.

[4] = Water solubility of paclitaxel and of its prodrugs (general statements); type: physicochemical; settings: listed advantage of the novel salts
[5] = tested on: neoplasms including breast; settings: several types of neoplasms including breast; cited from earlier work
[6] = Stability of paclitaxel 2'-methylpyridinium acetate (HPLC); type: physicochemical
Description: The onium salt paclitaxel-2'-MPA was prepared by the method of Nicolaou et al., Angew. Chim. Int. Engl., 33:1583-1587 ([…]). A 2.40 mg/ml solution of the paclitaxel-2'-MPA was prepared by dissolving the salt (10.2 mg) in a solution of water (3.024 ml) and polyethylene glycol (1.234 ml). Samples of this solution were frozen. The frozen samples were slowly warmed to room temperature and homogenized with CH3 CN (50 μl). An aliquot (50 μl) was removed and diluted to a final volume of 200 μl with deionized H2 O and analyzed via HPLC (20 μl injection).
Analysis conditions were as follows: […]
Mobile phase: 50% MeOH/80 mM NH4 OAc

[7] = Stability of 2'-MPA after HPLC purification in presence of excess acetate; type: physicochemical; settings: excess acetate ion, upon concentration of HPLC effluent, to paclitaxel
[8] = freshly prepared solution, 0.53 mg/ml in CH3CN

For `CC(=O)O[C@H]1C(=O)[C@@]2(C)[C@H]([C@H](OC(=O)c3ccccc3)[C@]3(O)C[C@H](OC(=O)[C@H](Oc4cccc[n+]4C)[C@@H](NC(=O)c4ccccc4)c4ccccc4)C(C)=C1C3(C)C)[C@]1(OC(C)=O)CO[C@@H]1C[C@@H]2O` [2'-MPM, Paclitaxel-2'-Methylpyridinium Mesylate], the “upper limit of solubility” value ([1]; deionized water) was “has not been attained as yet”, the “Solubility: sample amount for which solution was attained” value ([1]; deionized water 0.5 ml, sonicated approx. 1 min) was 0.97 mg and 0.80 mg and the “Solubility: additional water required to provide a free-flowing solution” value ([1]; largest sample (1.54 mg), on top of 0.5 ml deionized water) was 0.1 mL. The “Average return for extraction into CH2Cl2” value [2] was “about 44 % of theoretical”, the product concentration ([3]; 0.2M NaCl, 4° C., 24 hours) was “unchanged” and the remaining at 48 h ([3]; 0.2M NaCl, 4° C., 48 hours, read-out: product concentration) was 91%. It also gave a remaining at 72 h ([3]; 0.2M NaCl, 4° C., read-out: product concentration) of 88%, a degraded at 2 h ([3]; 0.2M NaCl, room temperature, 2 hours, read-out: drop in product concentration) of 1 to 2% and a remaining at 24 h ([3]; 0.2M NaCl, room temperature, 24 hours, read-out: product concentration) of 70%. For the same molecule, the Aqueous stability ([3]; 0.2M NaCl, room temperature, first ten minutes) was “no apparent change”, the remaining at 72 h ([3]; H2O, 4° C., read-out: product concentration) was 90% and the Aqueous stability ([3]; H2O, room temperature, 2 hours) was “relatively unchanged”. For the same molecule, the remaining at 24 h ([3]; H2O, room temperature, 24 hours, read-out: product concentration) was 56%, the “stability compared with 2'-MPA salt” value ([3]; aqueous solution, 4° C.) was “significantly more stable than the 2'-MPA salt” and the “MPM salt remaining (summary statement)” value ([3]; aqueous solution, 4° C., 24 hours) was “unchanged”. For the same molecule, the remaining at 72 h ([3]; water, aqueous solution, 4° C., read-out: MPM salt remaining (summary statement)) was 88 to 91% and the “solubility compared with paclitaxel” value [4] was “much higher than for paclitaxel”.

In the case of `CC(=O)O[C@H]1C(=O)[C@@]2(C)[C@H]([C@H](OC(=O)c3ccccc3)[C@]3(O)C[C@H](OC(=O)[C@H](O)[C@@H](NC(=O)c4ccccc4)c4ccccc4)C(C)=C1C3(C)C)[C@]1(OC(C)=O)CO[C@@H]1C[C@@H]2O` [Paclitaxel, paclitaxel], the effectiveness in chemotherapy [5] is listed as “effective for chemotherapy for several types of neoplasms including breast”.

With `CC(=O)O[C@H]1C(=O)[C@@]2(C)[C@H]([C@H](OC(=O)c3ccccc3)[C@]3(O)C[C@H](OC(=O)[C@H](Oc4cccc[n+]4C)[C@@H](NC(=O)c4ccccc4)c4ccccc4)C(C)=C1C3(C)C)[C@]1(OC(C)=O)CO[C@@H]1C[C@@H]2O` [2'-MPA, Paclitaxel 2'-Methylpyridinium Acetate] the “Paclita. % (paclitaxel in 2'-MPA sample)” value ([6]; 4° C., 1 Hour) was 15%, the “Unkno. % (unknown in 2'-MPA sample)” value ([6]; 4° C., 1 Hour) was “No peak eluted” and the “Paclita. % (paclitaxel in 2'-MPA sample)” value ([6]; 4° C., 2 Weeks) was 9%. For the same molecule, the “Unkno. % (unknown in 2'-MPA sample)” value ([6]; 4° C., 2 Weeks) was 10%, the “Paclita. % (paclitaxel in 2'-MPA sample)” value ([6]; 4° C., 6 Hours) was 11% and the “Unkno. % (unknown in 2'-MPA sample)” value ([6]; 4° C., 6 Hours) was 14%. For the same molecule, the “Paclita. % (paclitaxel in 2'-MPA sample)” value ([6]; 4° C., 18 Hours) was 10%, the “Unkno. % (unknown in 2'-MPA sample)” value ([6]; 4° C., 18 Hours) was 17% and the “Paclita. % (paclitaxel in 2'-MPA sample)” value ([6]; 4° C., 42 Hours) was 9%. The “Unkno. % (unknown in 2'-MPA sample)” value ([6]; 4° C., 42 Hours) was 12%, the “Paclita. % (paclitaxel in 2'-MPA sample)” value ([6]; 4° C., 66 Hours) was 11% and the “Unkno. % (unknown in 2'-MPA sample)” value ([6]; 4° C., 66 Hours) was 16%. The “Paclita. % (paclitaxel in 2'-MPA sample)” value ([6]; Room Temperature, 1 Hour) was 14%, the “Unkno. % (unknown in 2'-MPA sample)” value ([6]; Room Temperature, 1 Hour) was 8% and the “Paclita. % (paclitaxel in 2'-MPA sample)” value ([6]; Room Temperature, 6 Hours) was 14%. The “Unkno. % (unknown in 2'-MPA sample)” value ([6]; Room Temperature, 6 Hours) was 8%, the “Paclita. % (paclitaxel in 2'-MPA sample)” value ([6]; Room Temperature, 42 Hours) was 17% and the “Unkno. % (unknown in 2'-MPA sample)” value ([6]; Room Temperature, 42 Hours) was 10%. The “Paclita. % (paclitaxel in 2'-MPA sample)” value ([6]; Room Temperature, 66 Hours) was 13%, the “Unkno. % (unknown in 2'-MPA sample)” value ([6]; Room Temperature, 66 Hours) was 8% and the “Paclita. % (paclitaxel in 2'-MPA sample)” value ([6]; Room Temperature, 90 Hours) was 15%. The “Unkno. % (unknown in 2'-MPA sample)” value ([6]; Room Temperature, 90 Hours) was 12%, the “2'-MPA peak” value [6, 8] was 75% and the “Paclitaxel peak in 2'-MPA sample” value [6, 8] was 15%. The “Unknown peak in 2'-MPA sample” value [6, 8] was 10%, the remaining at 1 h ([6]; water/polyethylene glycol, 4° C., 1 Hour, read-out: 2'-MPA %) was 85% and the remaining at 336 h ([6]; water/polyethylene glycol, 4° C., 2 Weeks, read-out: 2'-MPA %) was 79%. It also gave a remaining at 6 h ([6]; water/polyethylene glycol, 4° C., 6 Hours, read-out: 2'-MPA %) of 75%, a remaining at 18 h ([6]; water/polyethylene glycol, 4° C., 18 Hours, read-out: 2'-MPA %) of 73% and a remaining at 42 h ([6]; water/polyethylene glycol, 4° C., 42 Hours, read-out: 2'-MPA %) of 79%. It also gave a remaining at 66 h ([6]; water/polyethylene glycol, 4° C., 66 Hours, read-out: 2'-MPA %) of 73%, a remaining at 1 h ([6]; water/polyethylene glycol, Room Temperature, 1 Hour, read-out: 2'-MPA %) of 78% and a remaining at 6 h ([6]; water/polyethylene glycol, Room Temperature, 6 Hours, read-out: 2'-MPA %) of 78%. It also gave a remaining at 18 h ([6]; water/polyethylene glycol, Room Temperature, 18 Hours, peaks of paclitaxel and unknown coeluted, read-out: 2'-MPA %) of 69%, a remaining at 42 h ([6]; water/polyethylene glycol, Room Temperature, 42 Hours, read-out: 2'-MPA %) of 73% and a remaining at 66 h ([6]; water/polyethylene glycol, Room Temperature, 66 Hours, read-out: 2'-MPA %) of 79%. For the same molecule, the remaining at 90 h ([6]; water/polyethylene glycol, Room Temperature, 90 Hours, read-out: 2'-MPA %) was 73% and the “stability on HPLC purification” value [7] was “decomposes rapidly”.
